From patent publication US20250282742A1, “BENZOFURAN DERIVATIVES FOR TARGETING AUTOPHAGY” (Automera PTE. LTD, priority 2024, published 2025)

The molecules below were run on p62 puncta in HeLa cells (assay: p62 puncta assay (immunocytochemistry and imaging, EVOS M7000 or Operetta CLS)). Details: Homo sapiens, fold change in p62 puncta levels relative to DMSO control, 24 hr.
Assay type: cell-based
Procedure: HeLa cells were seeded in coated 96-well plates (10,000 cells) and allowed to adhere overnight. After 24 hours of treatment with either vehicle (DMSO) or test compounds, the media was discarded, and cells were rinsed with ice-cold 1×PBS before fixation by 4% formaldehyde or paraformaldehyde for 20 min. Cells were then washed with 1×PBS and permeabilized with 0.1% Triton X-100 in PBS for 20 min and blocked with Blocking Buffer in PBS for 1 hour. The cells were incubated thereafter for 1 hour with anti-p62 primary antibody in Blocking Buffer, followed by incubation with secondary antibody for 1 hour. DAPI dye was used to visualize nuclei of fixed cells. The blocking buffer used were 5% Fetal Bovine Serum (FBS, ThermoFIsher Scientific, 10270106) and Li-cor Intercept (PBS) Blocking Buffer (Li-cor, 927-70001). The primary antibody used was mouse anti-p62 primary antibody (Novus Biologicals, H00008878-MO1). The secondary antibodies used were goat anti-mouse Alexa Fluor Plus 488 secondary antibody (Invitrogen, GOXMS) and goat anti-mouse Alexa Fluor 488 secondary antibody (Invitrogen, A-11029). The DAPI dyes used were DAPI dye (Invitrogen, 62248) and DAPI dye (Invitrogen, D1306).
For the EVOS M7000 System, cells were imaged on the EVOS M7000 microscope using a 20× air objective (Nikon, N.A 0.45). DAPI and p62 channels were illuminated with LED light cubes using integrated hard-coated filter sets for DAPI (357/447 nm) and GFP (470/525 nm) respectively. Images were analysed for p62 puncta count on the Celeste 6.0 software.
For the Operetta CLS System, cells were imaged on the Operetta CLS using a 63× water objective on the DAPI and Alexa 488 channels. Images were analysed for p62 puncta count on the Harmony 5.1 software.
HeLa cells were treated with compounds for 24 hours to evaluate the effect of these compounds on p62 puncta activity. The resulting changes in levels of p62 puncta were assessed by imaging, either on the EVOS M7000 or Operetta CLS systems as described in experimental procedures. The fold change of p62 puncta levels induced by compound treatment relative to vehicle control (DMSO) was determined and summarized in Table 10.

Compared with OCCNCc1ccc2oc(Cc3ccccc3)cc2c1 [compound 45], C#Cc1ccc(COCCNCc2ccc3cc(CCc4ccc(F)cc4)oc3c2)cc1 [compound 164] is higher in fold induction at 5 µM: < 2 for the first, > 2 for the second.

CC(C)(C)OC(=O)Nc1cccc(COCCNCc2ccc3cc(CCc4ccc(F)cc4)oc3c2)c1 [compound 153] and CC(C)(C)OC(=O)NCCCOCCNCc1ccc2cc(CCc3ccc(F)cc3)oc2c1 [compound 154] cannot be ordered by fold induction at 5 µM: > 2 for the first, > 2 for the second.

CC(C)(C)OC(=O)N1CC(COCCNCc2ccc3cc(CCc4ccc(F)cc4)oc3c2)C1 [compound 155] and CC(C)(C)OC(=O)N1CC(OCCNCc2ccc3cc(CCc4ccc(F)cc4)oc3c2)C1 [compound 158] cannot be ordered by fold induction at 5 µM: > 2 for the first, > 2 for the second.

CC(C)(C)OC(=O)NC1(COCCNCc2ccc3cc(CCc4ccc(F)cc4)oc3c2)CC1 [compound 156] and CC(C)(C)OC(=O)NCC1CC(COCCNCc2ccc3cc(CCc4ccc(F)cc4)oc3c2)C1 (stereo not shown) [compound 163] cannot be ordered by fold induction at 5 µM: > 2 for the first, > 2 for the second.

CC(C)(C)OC(=O)N1CCC(OCCNCc2ccc3cc(CCc4ccc(F)cc4)oc3c2)C1 (stereo not shown) [compound 157] and CC(C)(C)OC(=O)N1CCC(COCCOCCNCc2ccc3cc(CCc4ccc(F)cc4)oc3c2)CC1 [compound 165] cannot be ordered by fold induction at 5 µM: > 2 for the first, > 2 for the second.

COC(=O)c1ccc(OCCOCCNCc2ccc3cc(CCc4ccc(F)cc4)oc3c2)cc1 [compound 159] and COC(=O)c1ccc(N2CCC(COCCNCc3ccc4cc(CCc5ccc(F)cc5)oc4c3)CC2)cc1 [compound 162] cannot be ordered by fold induction at 5 µM: > 2 for the first, > 2 for the second.

First: COC(=O)CCOCCOCCOCCNCc1ccc2cc(CCc3ccc(F)cc3)oc2c1 [compound 160]
Second: C#CCCCCCCCCOCCNCc1ccc2cc(CCc3ccc(F)cc3)oc2c1 [compound 161]
The fold induction at 5 µM of the first is lower: < 2 for the first, > 2 for the second.

CC(C)(C)OC(=O)NC1CCN(CCOCCNCc2ccc3cc(CCc4ccc(F)cc4)oc3c2)CC1 [compound 166] and CC(C)(C)OC(=O)N[C@H]1CC[C@H](COCCNCc2ccc3cc(CCc4ccc(F)cc4)oc3c2)CC1 [compound 168] cannot be ordered by fold induction at 5 µM: > 2 for the first, > 2 for the second.

In the case of CC(C)(C)OC(=O)NC[C@H]1CC[C@H](COCCNCc2ccc3cc(CCc4ccc(F)cc4)oc3c2)CC1 [compound 167], the fold induction at 5 µM was > 2.

What follows are molecules tested against T1, Recombinant p62 protein (Homo sapiens, UniProt Q13501) (assay: Surface plasmon resonance (SPR) compound binding to immobilised p62). Details: recombinant p62, 15° C.
T1 construct: Recombinant p62 protein was buffer exchanged into Biacore SPR running buffer
Procedure: Example 28: Surface Plasmon Resonance (SPR) Analysis
Recombinant p62 protein was buffer exchanged into Biacore SPR running buffer (Cytiva 100671) using the Slide-A-Lyzer Mini Dialysis system 7K MWCO (Thermo Fisher Scientific, Cat no. 69560). The final protein concentration was determined using the Nanodrop One spectrophotometer (Thermo Fisher Scientific, cat no. ND-ONE-W), with calibration for the dialysis buffer.
The prepared protein was diluted in sodium acetate buffer (NaAc, pH 5.5, Cytiva) to concentrations ranging from approximately 0.25-40 μg/mL. Post-immobilization, the protein required approximately 16 hours of equilibration in running buffer supplemented with 1% DMSO at 15° C. to ensure adequate surface equilibration and protein reorganization.
All SPR experiments were conducted at a constant temperature of 15° C. The SPR chip surface was activated using EDC/NHS for a contact time of 6-10 min at a flow rate of 10 μL/min. This was followed by protein immobilization for 2100 seconds and ethanolamine capping for 420 seconds, both at the same flow rate. Immediately after immobilization, the NH2—REEE peptide was analyzed in Single Cycle Kinetics mode (SCK) to verify surface activity, ensuring it binds the sample with the published affinity (−20 μM by SPR).
For general compound binding studies, experiments were performed at 15° C. using a running buffer composed of 10 mM HEPES, 150 mM NaCl, 1 mM DTT, 0.05% Tween 20, and 1% DMSO at pH 7.4. The test compound was initially prepared at a 20 mM concentration in DMSO and subsequently titrated in 2-fold dilutions. For each assay, 2 μL of the compound was mixed with 198 μL of the running buffer, and the mixture was thoroughly pipetted approximately 15 times for homogenization.
A series of blank injections (0 μM concentration) were included for double referencing, with at least 8 or 16 per plate depending on the format. Typical injection parameters were 120 seconds for association and 180 seconds for dissociation at a flow rate of […]. A four-point solvent correction was prepared with DMSO concentrations ranging from 2% to 0.5% in the buffer. Post each compound injection, the system's needles were washed with 50% DMSO.
Analysis of the SPR data was conducted using the Cytiva Evaluation software. The binding levels at the late time-point of each interaction were corrected for reference, then normalized to percentage bound values to account for variations in immobilization levels, protein molecular weight, and compound molecular weight.
Compound binding studies were carried out according to experimental procedures above and SPR % occupancy was determined and summarized in Table 7.

T1 sequence (Q13501 whole entry, species assumed): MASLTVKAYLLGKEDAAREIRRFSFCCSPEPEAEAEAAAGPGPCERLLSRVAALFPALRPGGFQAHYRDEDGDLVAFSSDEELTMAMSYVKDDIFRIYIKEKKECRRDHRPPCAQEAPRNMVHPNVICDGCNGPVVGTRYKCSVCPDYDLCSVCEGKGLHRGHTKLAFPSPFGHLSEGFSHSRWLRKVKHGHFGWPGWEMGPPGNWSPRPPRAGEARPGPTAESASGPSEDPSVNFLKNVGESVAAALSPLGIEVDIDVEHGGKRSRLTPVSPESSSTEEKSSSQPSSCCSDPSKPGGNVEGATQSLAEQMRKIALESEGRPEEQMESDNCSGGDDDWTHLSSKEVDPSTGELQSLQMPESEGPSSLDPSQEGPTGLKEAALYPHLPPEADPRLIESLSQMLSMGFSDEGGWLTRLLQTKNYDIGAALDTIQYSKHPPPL

O=C(NCCO)c1ccc2cc(Cc3ccccc3)oc2c1 [Compound 6, 2-benzyl-N-(2-hydroxyethyl)benzofuran-6-carboxamide] and O=C(CCO)Nc1ccc2cc(Cc3ccccc3)oc2c1 [Compound 11, N-(2-benzylbenzofuran-6-yl)-3-hydroxypropanamide] cannot be ordered by receptor occupancy at 100 µM: < 30% for the first, < 30% for the second.

OCCNCc1ccc2cc(Cc3ccncc3)oc2c1 [Compound 16, 2-(((2-(pyridin-4-ylmethyl)benzofuran-6-yl)methyl)amino)ethan-1-ol] and OCCNCc1ccc2oc(Cc3ccccc3)cc2c1 [compound 45] fall in the same range of receptor occupancy at 100 µM: 30 to 70% for the first, 30 to 70% for the second.

O=S(=O)(c1ccccc1)c1cc2ccc(CNCCO)cc2o1 [Compound 18, 2-(((2-(phenylsulfonyl)benzofuran-6-yl)methyl)amino)ethan-1-ol] and O=S(=O)(Nc1ccccc1)c1cc2ccc(CNCCO)cc2o1 [Compound 19, 6-(((2-hydroxyethyl)amino)methyl)-N-phenylbenzofuran-2-sulfonamide] fall in the same range of receptor occupancy at 100 µM: 30 to 70% for the first, 30 to 70% for the second.

CN(C)C(=O)Cc1cc2ccc(CNCCO)cc2o1 [Compound 29, 2-(6-(((2-hydroxyethyl)amino)methyl)benzofuran-2-yl)-N,N-dimethylacetamide] and OCCNCc1ccc2cc(Cc3c[nH]cn3)oc2c1 [compound 23] cannot be ordered by receptor occupancy at 100 µM: < 30% for the first, < 30% for the second.

O=C(c1cc2ccc(CNCCO)cc2o1)N1CCCCC1 [Compound 34, (6-(((2-hydroxyethyl)amino)methyl)benzofuran-2-yl)(piperidin-1-yl)methanone] and OCCNCc1ccc2cc(CN3CCCC(O)C3)oc2c1 (stereo not shown) [compound 28] cannot be ordered by receptor occupancy at 100 µM: < 30% for the first, < 30% for the second.

OCCNCc1cc2oc(Cc3ccccc3)cc2cc1F [Compound 36, 2-(((2-benzyl-5-fluorobenzofuran-6-yl)methyl)amino)ethan-1-ol] and OCCNCc1ccc2cc(Cc3ccccc3)oc2c1F [Compound 38, 2-(((2-benzyl-7-fluorobenzofuran-6-yl)methyl)amino)ethan-1-ol] fall in the same range of receptor occupancy at 100 µM: 30 to 70% for the first, 30 to 70% for the second.

First: OCCNCc1cccc2oc(Cc3ccccc3)cc12 [compound 4]
Second: OCCNCc1ccc2nc(Cc3ccccc3)oc2c1 [compound 47, 2-(((2-benzylbenzo[d]oxazol-6-yl)methyl)amino)ethan-1-ol]
The receptor occupancy at 100 µM of the first is higher: 30 to 70% for the first, < 30% for the second.

OCCNCc1ccc2cc(CNC3CCOCC3)oc2c1 [compound 32] and O=C(NCCO)c1ccc2cc(CCc3ccc(F)cc3)oc2c1 [compound 50, 2-(4-fluorophenethyl)-N-(2-hydroxyethyl)benzofuran-6-carboxamide] cannot be ordered by receptor occupancy at 100 µM: < 30% for the first, < 30% for the second.

With OCCNCc1ccc2nc(Cc3ccccc3)sc2c1 [compound 48, 2-(((2-benzylbenzo[d]thiazol-6-yl)methyl)amino)ethan-1-ol] the receptor occupancy at 100 µM was 30 to 70%.
